According to ChEMBL document CHEMBL4837206, “Synthesis and biological evaluation of novel isoxazole-piperazine hybrids as potential anti-cancer agents with inhibitory effect on liver cancer stem cells” (Eur J Med Chem, 2021):
Activity calls are given as the source filed them. No cut-off for these calls is given here.

How the values were obtained:
[1] = tested on: Huh-7; experiment: Antiproliferative activity against human Huh-7 cells assessed as reduction in cell viability measured after 72 hrs by SRB assay; type: functional, cell-based; settings: Huh-7, 72 h
[2] = tested on: Mahlavu; experiment: Antiproliferative activity against human Mahlavu cells assessed as reduction in cell viability measured after 72 hrs by SRB assay; type: functional, cell-based
[3] = tested on: MCF7; experiment: Antiproliferative activity against human MCF7 cells assessed as reduction in cell viability measured after 72 hrs by SRB assay; type: functional, cell-based; settings: MCF7, 72 h
[4] = tested on: Huh-7; experiment: Inhibition of cell stemness in human Huh-7 cells assessed as reduction in tumor spheres count at 10 uM incubated for 72 hrs followed by incubation in sphere formation medium for 7 days by microscopic analysis; type: functional, cell-based; settings: time 10.0 day
[5] = tested on: Mahlavu; experiment: Upregulation of OCT4 mRNA expression in human Mahlavu cells at 10 uM incubated for 72 hrs by RT-qPCR analysis; type: functional, cell-based
[6] = tested on: Huh-7; experiment: Inhibition of cell stemness in human Huh-7 cells assessed as CD133+/EpCAM+ expression at 10 uM measured after 72 hrs by flow cytometry analysis (reference value: 29.92%); type: functional; design: scale not given: the % may be the effect or the level left
[7] = tested on: Huh-7; experiment: Inhibition of cell stemness in human Huh-7 cells assessed as reduction in size of tumor spheres at 10 uM incubated for 72 hrs followed by incubation in sphere formation medium for 7 days by microscopic analysis; type: functional, cell-based; settings: time 10.0 day
[8] = Upregulation of NANOG mRNA expression in human Mahlavu cells at 10 uM incubated for 72 hrs by RT-qPCR analysis relative to control; type: functional
[9] = tested on: Huh-7; experiment: Upregulation of OCT4 mRNA expression in human Huh-7 cells at 10 uM incubated for 72 hrs by RT-qPCR analysis; type: functional, cell-based
[10] = tested on: Huh-7; experiment: Upregulation of NANOG mRNA expression in human Huh-7 cells at 10 uM incubated for 72 hrs by RT-qPCR analysis; type: functional, cell-based
[11] = tested on: Mahlavu; experiment: Upregulation of OCT4 level in human Mahlavu cells at 10 uM measured after 72 hrs by flow cytometry analysis; type: functional, cell-based
[12] = tested on: Huh-7; experiment: Inhibition of cell stemness in human Huh-7 cells assessed as reduction in size of tumor spheres at 10 uM incubated for 72 hrs followed by incubation in sphere formation medium for 14 days by microscopic analysis; type: functional, cell-based; settings: time 17.0 day

| SMILES | IC50 [1] [µM] | IC50 [2] [µM] | IC50 [3] [µM] | also measured |
| --- | --- | --- | --- | --- |
| N#Cc1cccc(COc2ccc(-c3cc(CN4CCN(c5ccc(F)cc5)CC4)no3)cc2)c1 | 1.5 | 2.2 | 2.4 | – |
| N#Cc1cccc(COc2ccc(-c3cc(CN4CCN(Cc5ccc(C(F)(F)F)cc5)CC4)no3)c(F)c2)c1 | 0.4 | 0.4 | 1.2 | – |
| N#Cc1cccc(COc2ccc(-c3cc(CN4CCN(C(=O)C5CC5)CC4)no3)cc2)c1 | 2.8 | 4.4 | 7.6 | – |
| N#Cc1cccc(COc2ccc(-c3cc(CN4CCN(C(=O)c5ccco5)CC4)no3)cc2F)c1 | 8.1 | 3.6 | 1.5 | – |
| N#Cc1cccc(COc2ccc(-c3cc(CN4CCN(Cc5cccc(F)c5)CC4)no3)cc2)c1 | 2.7 | 2.6 | 2.4 | – |
| N#Cc1cccc(COc2ccc(-c3cc(CN4CCN(CC5CC5)CC4)no3)cc2)c1 | 2.9 | 3.2 | 3.5 | – |
| COc1ccc(COc2ccc(-c3cc(CN4CCN(Cc5ccc(C(F)(F)F)cc5)CC4)no3)cc2)cc1 | 3.2 | 4.9 | 1.3 | – |
| Cc1cc(OCc2cccc(C#N)c2)ccc1-c1cc(CN2CCN(Cc3ccc(C(F)(F)F)cc3)CC2)no1 | 1.5 | 0.5 | 0.4 | – |
| N#Cc1cccc(COc2ccc(-c3cc(CN4CCN(c5ccc(C(F)(F)F)cn5)CC4)no3)cc2)c1 | 1.7 | 1.3 | 1.4 | – |
| Cc1cccc(COc2ccc(-c3cc(CN4CCN(Cc5ccc(C(F)(F)F)cc5)CC4)no3)cc2)c1 | 5 | 2.5 | 4 | – |
| N#Cc1cccc(COc2ccc(-c3cc(CN4CCN(c5ccc(C(F)(F)F)cc5)CC4)no3)cc2)c1 | 2.2 | 2.7 | 2 | – |
| N#Cc1ccccc1COc1ccc(-c2cc(CN3CCN(Cc4ccc(C(F)(F)F)cc4)CC3)no2)cc1 | 5 | 3.5 | 4 | – |
| Fc1ccccc1COc1ccc(-c2cc(CN3CCN(Cc4ccc(C(F)(F)F)cc4)CC3)no2)cc1 | 1.5 | 3.1 | 3 | – |
| CNC(=O)c1cc(Oc2ccc(NC(=O)Nc3ccc(Cl)c(C(F)(F)F)c3)cc2)ccn1 [SORAFENIB] | – | – | – | inhibition [4]: inactive; Activity [5]: Active; Activity [6]: 36.16%; inhibition [7]: Active; fold change (FC) [8]: 10; Activity [9]: Active; Activity [10]: Active; Activity [11]: Active; inhibition [12]: inactive |
| Fc1cccc(COc2ccc(-c3cc(CN4CCN(Cc5ccc(C(F)(F)F)cc5)CC4)no3)cc2)c1 | 1.3 | 2.9 | 2.5 | – |
| Cc1ccccc1COc1ccc(-c2cc(CN3CCN(Cc4ccc(C(F)(F)F)cc4)CC3)no2)cc1 | 1.2 | 6.8 | 3.7 | – |
| N#Cc1cccc(COc2ccc(-c3cc(CN4CCN(C(=O)C5CCCO5)CC4)no3)cc2)c1 (stereo not drawn) | 2.2 | 4.1 | 3.8 | – |
| N#Cc1ccc(COc2ccc(-c3cc(CN4CCN(Cc5ccc(C(F)(F)F)cc5)CC4)no3)cc2)cc1 | 1 | 4.3 | 0.1 | – |
| FC(F)(F)c1ccc(CN2CCN(Cc3cc(-c4ccc(OCc5ccc(Cl)cc5)cc4)on3)CC2)cc1 | 4 | 3.7 | 6.7 | – |
